The values below come from US12435083B2, “Cyclopropyl-(hetero)aryl-substituted ethylsulphonyl-pyridine derivatives” (BOEHRINGER INGELHEIM VETMEDICA GMBH, priority 2021, dated 2025).

Where two headings read alike, the source gives them in different places. Bounds are passed on as bounds.

In one experiment the test system is Plutella xylostella. Description: Insecticidal test on Plutella xylostella (Chinese cabbage seedling dip). As to conditions: 144 h, read-out: activity level (corrected mortality rate), Plutella xylostella. The protocol:
Example 12: Insecticidal Test on Plutella xylostella
(§1) The compounds of formula (I) of the present invention or salts thereof were separately dispersed in water and diluted to 500 ppm. Ten adults of Plutella xylostella were released onto Chinese cabbage seedlings and allowed to lay eggs thereon. 2 days after the release of the adults, the seedling was dipped in the dispersion for about 30 seconds. After air dried, the seedling was kept in a room at 25° C. 6 days after the dip treatment, the numbers of the dead and alive insects were counted. The corrected mortality rate was calculated according to the following formula and the insecticidal activity was evaluated according to the following criteria. Corrected mortality rate (%)=100×(Survival rate in an untreated plot−Survival rate in a treated plot)/Survival rate in an untreated plot • A: the corrected mortality rate is 100% • B: the corrected mortality rate is 90 to 99% • C: the corrected mortality rate is 80 to 89% • D: the corrected mortality rate is 50 to 79%

Experiment [1] relates to Laodelphax striatellus 3rd-instar nymphs. As to the kind of experiment: Insecticidal test on Laodelphax striatellus (rice seedling dip). As to conditions: 192 h, read-out: activity level (corrected mortality rate), Laodelphax striatellus. The protocol:
Example 13: Insecticidal Test on Laodelphax striatellus
as §1, with “Rice plant seedlings” for “Ten adults of Plutella xylostella”, “were” for “were released onto Chinese cabbage seedlings and allowed to lay eggs thereon. 2 days after the release of the adults, the seedling was”, “seedlings were put into a separate glass test tube and inoculated with ten 3rd-instar nymphs of Laodelphax striatellus and then the glass test tube” for “seedling”, “8” for “6”, “inoculation,” for “dip treatment,”

For another experiment, the system named is Myzus persicae. As to the kind of experiment: Insecticidal test on Myzus persicae (foliar application on potted Chinese cabbage). The conditions noted are these: 144 h, 500 ppm, foliar application, 6 days after application, read-out: control efficacy level (control rate), Myzus persicae. The text has this: Example 14: Insecticidal Test on Myzus persicae
The compounds of formula (I) of the present invention or salts thereof were separately dispersed in water and diluted to 500 ppm. Chinese cabbage plants were planted in plastic pots (diameter: 8 cm, height: 8 cm). Aphids (Myzus persicae) were propagated on the plants and then the number of surviving aphids was counted. The dispersion was applied to the foliage of the potted plants. After the plants were air dried, these were kept in a greenhouse. 6 days after the application, the number of the alive insects was counted on the plants. The control rate was calculated according to the following formula and the control efficacy was evaluated according to the following criteria. Control rate (%)=100−{(T×Ca)/(Ta×C)}×100 • Ta: the number of alive insects before the foliar application in a treated plot • T: the number of alive insects after the foliar application in a treated plot • Ca: the number of alive insects before the foliar application in an untreated plot • C: the number of alive insects after the foliar application in an untreated plot • A: the control rate is 100% • B: the control rate is 90 to 99% • C: the control rate is 80 to 89% • D: the control rate is 50 to 79%

Experiment [2] relates to adult Rhipicephalus sanguineus ticks. As to the kind of experiment: Contact activity against adult Rhipicephalus sanguineus (coated vial, mortality at 48 h). As to conditions: Rhipicephalus sanguineus. The protocol: Example 5: Screening Method to Test Contact Activity of Compounds of Formula (I) Against Adult Rhipicephalus sanguineus
Compounds of formula (I) formulated in 100% DMSO were diluted in a solution containing acetone and Triton X-100 (0.02%). The resulting formulation was used to coat the inner walls of glass scintillation vials and the filter paper covering the cap of the vial. Once dried, ten adult R. sanguineus ticks were added to the vials. The vials were incubated at 24° C., 95% relative humidity, and 12 hours of light/12 hours of dark until evaluation. Ticks were visually evaluated for mortality at 48 hours post-treatment. Compound efficacy at a given dose is expressed as percentage mortality. A dose response series was implemented to determine EC50 values.
(§2) The four structurally closest prior art compounds (A), (B), (C) and (D) specifically excluded from the scope of formula (I) were characterized vis-a-vis selected compounds of formula (I) with regard to their potency in in vitro screening assays against fleas (Ctenocehalides felis) and ticks (Rhipicephalus sanguineus).
(§3) However, as explained above, spectrum of action against this range of species (i.e. fleas and ticks) is a desirable property of ectoparasiticides for veterinary use. In the following table 1 comparative experimental data of the in vitro assays are shown regarding flea membrane feeding (ingestion, blood feeding) activity against Ctenocephalides felis and contact activity against Rhipicephalus sanguineus.

Experiment [3] concerns adult Ctenocephalides felis fleas. Description: Contact activity against adult Ctenocephalides felis (treated surface, motility by machine vision, 24 h). The conditions noted are these: read-out: EC80 (% motility reduction, adult C. felis, contact). The text has this: Example 7: Screening Method to Test Contact Activity of Compounds of Formula (I) Against Adult Ctenocephalides felis

Experiment [4] shares this test system. Description: Ingestion activity (flea membrane feeding, blood feeding) against adult Ctenocephalides felis. As to conditions: Ctenocephalides felis.
From the text: Example 6: Screening Method to Test Ingestion Activity of Compounds of Formula (I) Against Adult Ctenocephalides felis
as §2
It is important to note that compounds that show better activity versus ticks are more desirable in the animal health field, as ticks are more difficult to control than fleas. Noteworthy, in particular with regard to fleas the illustrated comparative data are based on a flea membrane feeding (ingestion, blood feeding) assay. Data from this assay are more relevant for compounds intended to be delivered systemically to an animal via oral or injectable routes. Membrane feeding assays differ to primary screening laboratory contact assays in that the latter only measure the effect of the direct contact of selected compounds on the parasite, such as the flea or the tick. The information derived from laboratory contact assays is strictly limited to the ability of the compound to be absorbed through the parasite surface and to reach its molecular target, and no information can be gleaned from these contact assays as to whether the compound would also be active when presented orally to the ectoparasite itself in a blood meal, such as with the membrane feeding assay, and certainly not when administered orally to an animal host (e.g. “in vivo”) with subsequent exposure to the ectoparasite.
as §3

[5] abbreviates: 500 ppm, seedling dip, 6 days after dip treatment.
The mark [6] stands for this setting: 500 ppm, seedling dip, 8 days after inoculation.
Setting [7] is: 48 hours post-treatment, coated vial, read-out: EC50 (percentage mortality, adult R. sanguineus, contact).
Setting [8] is: bovine blood, 24h post treatment, read-out: EC80 (% motility reduction, adult C. felis, ingestion via membrane feeding).

In the case of `CCS(=O)(=O)c1cc(-c2ccc(C3CC3)cc2)cnc1-c1nc(-c2cc(C(F)(F)F)ccn2)cn1C` [Compound 55, 5-(4-cyclopropylphenyl)-3-(ethanesulfonyl)-2-[1-methyl-4-[4-(trifluoromethyl)pyridin-2-yl]imidazol-2-yl]pyridine], the mortality at 500 ppm (with Plutella xylostella (setting [5]); in experiment [1] (setting [6])) was 100% each time. For the same compound, the pest or weed control at 500 ppm with Myzus persicae is 100%.
`CCS(=O)(=O)c1cc(-c2ccc(C3CC3)cc2)cnc1-c1cc2n(C(C)C)cc(C(F)(F)F)cc-2n1` [Compound 100, 5-(4-cyclopropylphenyl)-3-(ethanesulfonyl)-2-[4-isopropyl-6-(trifluoromethyl)pyrrolo[3,2-b]pyridin-2yl]pyridine]: in experiment [2] (48 h, read-out: EC50 (percentage mortality, adult R. sanguineus, contact)), the concentration giving a half-maximal response (EC50) was less than 10 µM. In addition, the EC80 in experiment [3] (24 h) lay within 1 to 10 µM. Moreover, the mortality at 500 ppm (with Plutella xylostella; in experiment [1]) was 100% each time.
As for `CCn1cc(C(F)(F)F)cc2nc(-c3ncc(-c4ncc(C5CC5)cn4)cc3S(=O)(=O)CC)cc1-2` [Compound 92, 5-cyclopropyl-2-[5-(ethanesulfonyl)-6-[4-ethyl-6-(trifluoromethyl)pyrrolo[3,2-b]pyridin-2-yl]pyridin-3-yl]pyrimidine], the EC80 in experiment [3] (treated surface, 24h) lay within 1 to 10 µM. Besides, the mortality at 500 ppm in the experiment on Plutella xylostella (setting [5]) stood at 100%. Besides, in the experiment with Myzus persicae, the pest or weed control at 500 ppm is 100%.
Consider `CCS(=O)(=O)c1cc(-c2ccc(C3(C)CC3)cc2)cnc1-c1nc2cc(C(F)(F)C(F)(F)F)nnc2n1C` [compound 154], for which the EC50 in experiment [2] (setting [7]) was 10 to 100 µM. Moreover, in experiment [3] (treated surface, 24h), the EC80 fell in the range of 1 to 10 µM. For the same compound, in the experiment on Plutella xylostella (setting [5]), the mortality at 500 ppm came to 100%. In addition, the pest or weed control at 500 ppm in the experiment on Myzus persicae was determined as 100%.
As to `CCS(=O)(=O)c1cc(-c2ccc(C3CC3)cc2)cnc1-n1cc2ncc(C(F)(F)F)cc2n1` [Compound 48, 5-(4-cyclopropylphenyl)-3-(ethanesulfonyl)-2-[6-(trifluoromethyl)pyrazolo[4,3-b]pyridin-2-yl]pyrid-ine], the EC80 in experiment [3] (treated surface, 24h) is 1 to 10 µM.
Turning to `CCS(=O)(=O)c1cc(-c2cnc(C3CC3)nc2)cnc1-c1nc2cc(C(F)(F)C(F)(F)F)nnc2n1C` [Compound 93, 2-cyclopropyl-5-[5-(ethanesulfonyl)-6-[7-methyl-3-(1,1,2,2,2-pentafluoroethyl)imidazo[4,5-c]pyridazin-6-yl]pyridin-3-yl]pyrimidine], the EC80 in experiment [4] (setting [8]) was 1 to 10 µM; in experiment [3] (treated surface, 24h), less than 1 µM.
For the compound `CCS(=O)(=O)c1cc(-c2ccc(C3CC3)cc2)cnc1-c1ncc(OCC(F)(F)C(F)(F)F)c(=O)n1C` [Compound 110, 2-[5-(4-cyclopropylphenyl)-3-(ethanesulfonyl)pyridin-2-yl]-3-methyl-5-(2,2,3,3,3-pentafluoropropoxy)pyrimidin-4-one], the EC80 in experiment [3] (treated surface, 24h) lay in the range of 1 to 10 µM.
Take `CCS(=O)(=O)c1cc(-c2cnnc(C3CC3)c2)cnc1-c1nc2cc(C(F)(F)C(F)(F)F)cnc2n1C` [Compound 195, 3-cyclopropyl-5-[5-(ethanesulfonyl)-6-[3-methyl-6-(1,1,2,2,2-pentafluoroethyl)imidazo[4,5-b]pyridin-2-yl]pyridin-3-yl]pyridazine]: the EC80 in experiment [4] (setting [8]) was less than 1 µM. The mortality at 500 ppm (with Plutella xylostella (setting [5]); in experiment [1] (setting [6])) was 100% throughout.
As for `CCn1c(=O)c(C(F)(F)F)cc2nc(-c3ncc(-c4ccc(C5CC5)cc4)cc3S(=O)(=O)CC)n(C)c21` [compound 125], the EC80 in experiment [3] (treated surface, 24h) is 1 to 10 µM. Besides, the pest or weed control at 500 ppm in the experiment on Myzus persicae turned out to be 100%.
As to `CCn1cc(C(F)(F)F)cc2nc(-c3ncc(-c4ccc(C5CC5)cc4)cc3S(=O)(=O)CC)cc1-2` [Compound 6, 5-(4-cyclopropylphenyl)-3-(ethanesulfonyl)-2-[4-ethyl-6-(trifluoromethyl)pyrrolo[3,2-b]pyridine-2-yl]pyridine], the EC80 in experiment [3] (treated surface, 24h) lay within 1 to 10 µM. For the same compound, the mortality at 500 ppm in the experiment on Plutella xylostella (setting [5]) was 100%.
In the case of `CCS(=O)(=O)c1cc(-c2cccnc2C2CC2)cnc1-c1nc2cc(C(F)(F)C(F)(F)F)nnc2n1C` [compound 138], the EC80 in experiment [4] (setting [8]) was less than 1 µM; in experiment [3] (treated surface, 24h), less than 1 µM. Besides, the mortality at 500 ppm (in the experiment on Plutella xylostella (setting [5]); in experiment [1] (setting [6])) was 100% throughout. For the same compound, the pest or weed control at 500 ppm with Myzus persicae came to 100%.
On to `CCS(=O)(=O)c1cc(-c2ccc(C3CC3)cc2)cnc1-c1ccc(OCC(F)(F)C(F)(F)F)nn1` [Compound 126, 3-[5-(4-cyclopropylphenyl)-3-(ethanesulfonyl)pyridin-2-yl]-6-(2,2,3,3,3-pentafluoropropoxy)pyridazine], for which the EC50 in experiment [2] (setting [7]) is less than 10 µM. In addition, the mortality at 500 ppm (with Plutella xylostella (setting [5]); in experiment [1] (setting [6])) was 100% each time. Further, the pest or weed control at 500 ppm in the experiment on Myzus persicae is 100%.
Regarding `CCS(=O)(=O)c1cc(-c2ccc(C3CC3)cc2)cnc1-c1nc2cc(C(F)(F)F)cnc2o1` [Compound 40, 5-(4-cyclopropylphenyl)-3-(ethanesulfonyl)-2-[6-(trifluoromethyl)-[1,3]oxazolo[5,4-b]pyridin-2-yl]pyridine], the EC80 in experiment [3] (treated surface, 24h) is 1 to 10 µM. Besides, the mortality at 500 ppm with Plutella xylostella (setting [5]) came out at 100%.
In the case of `CCS(=O)(=O)c1cc(-c2ccc(C3CC3(F)F)cc2)cnc1-c1nc2cc(C(F)(F)C(F)(F)F)cnc2n1C` (centres unmarked) [compound 134], the EC50 in experiment [2] (setting [7]) fell in the range of 10 to 100 µM; in experiment [2] (contact assay, >100 μM = not active at the top concentration, read-out: R. sanguineus contact activity EC50), 10 to 100 µM. In addition, the EC80 in experiment [4] (24 h, flea membrane feeding (ingestion, blood feeding) assay, EC80, read-out: C. felis membrane feeding (ingestion/blood feeding) activity EC80) was in the range of 1 to 10 µM; in experiment [4] (setting [8]), 1 to 10 µM; in experiment [3] (treated surface, 24h), 1 to 10 µM. Moreover, the mortality at 500 ppm (in the experiment with Plutella xylostella (setting [5]); in experiment [1] (setting [6])) was 100% throughout. Besides, in the experiment on Myzus persicae, the pest or weed control at 500 ppm turned out to be 100%.
